Values of other authors as cited in patent US6680310B2, “Methods for preventing antipsychotic-induced weight gain” (Corcept Therapeutics, Inc., priority 2001, dated 2004).

Settings: in one study (Kawai, supra)

fraction of the daily dose excreted in the urine: less than 0.5%
SMILES: CC#C[C@]1(O)CC[C@H]2[C@@H]3CCC4=CC(=O)CCC4=C3[C@@H](c3ccc(N(C)C)cc3)C[C@@]21C [Mifepristone, 17-beta-hydroxy-11-beta-(4-dimethyl-aminophenyl)-17-alpha(1-propynyl)-estra-4,9-dien-3-one]
